# pKi: −log10 of the molar value.
# Experiments:
# [1] = biological target: Glutamate receptor ionotropic, kainate 2 (Homo sapiens, UniProt Q13002); assay: Displacement of [3H]kianic acid from recombinant GluK2 kainate receptor (unknown origin) expressed in HEK293 cell membranes measured after 1 hr
# [2] = biological target: Glutamate receptor ionotropic, kainate 1 (Homo sapiens, UniProt P39086); assay: Displacement of [3H]kianic acid from recombinant GluK1 kainate receptor (unknown origin) expressed in HEK293 cell membranes measured after 1 hr
# Glutamate receptor ionotropic, kainate 1, sequence (P39086 whole entry): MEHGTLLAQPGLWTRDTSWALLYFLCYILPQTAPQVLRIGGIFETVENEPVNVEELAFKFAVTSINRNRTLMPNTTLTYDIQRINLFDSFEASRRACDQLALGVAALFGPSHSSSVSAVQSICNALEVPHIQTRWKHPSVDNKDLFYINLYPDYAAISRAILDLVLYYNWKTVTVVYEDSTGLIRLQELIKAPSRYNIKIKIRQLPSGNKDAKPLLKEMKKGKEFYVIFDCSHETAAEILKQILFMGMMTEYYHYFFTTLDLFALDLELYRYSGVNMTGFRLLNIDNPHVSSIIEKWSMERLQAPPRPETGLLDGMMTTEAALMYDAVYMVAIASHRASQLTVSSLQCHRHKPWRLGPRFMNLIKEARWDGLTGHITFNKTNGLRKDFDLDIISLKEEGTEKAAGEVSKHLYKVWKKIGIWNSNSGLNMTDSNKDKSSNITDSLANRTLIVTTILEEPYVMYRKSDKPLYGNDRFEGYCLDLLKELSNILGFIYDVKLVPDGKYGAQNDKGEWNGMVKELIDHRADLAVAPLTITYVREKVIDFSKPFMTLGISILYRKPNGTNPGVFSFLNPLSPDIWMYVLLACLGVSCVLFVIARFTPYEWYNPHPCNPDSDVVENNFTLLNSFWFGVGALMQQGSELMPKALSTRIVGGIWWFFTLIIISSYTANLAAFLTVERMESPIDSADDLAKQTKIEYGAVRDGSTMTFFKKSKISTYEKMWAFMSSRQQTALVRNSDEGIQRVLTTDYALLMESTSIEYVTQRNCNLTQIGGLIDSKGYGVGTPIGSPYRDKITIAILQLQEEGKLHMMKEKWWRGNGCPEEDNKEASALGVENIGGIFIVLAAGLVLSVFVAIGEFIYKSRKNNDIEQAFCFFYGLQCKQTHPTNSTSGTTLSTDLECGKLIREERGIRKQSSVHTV
# Glutamate receptor ionotropic, kainate 2, sequence (Q13002 whole entry): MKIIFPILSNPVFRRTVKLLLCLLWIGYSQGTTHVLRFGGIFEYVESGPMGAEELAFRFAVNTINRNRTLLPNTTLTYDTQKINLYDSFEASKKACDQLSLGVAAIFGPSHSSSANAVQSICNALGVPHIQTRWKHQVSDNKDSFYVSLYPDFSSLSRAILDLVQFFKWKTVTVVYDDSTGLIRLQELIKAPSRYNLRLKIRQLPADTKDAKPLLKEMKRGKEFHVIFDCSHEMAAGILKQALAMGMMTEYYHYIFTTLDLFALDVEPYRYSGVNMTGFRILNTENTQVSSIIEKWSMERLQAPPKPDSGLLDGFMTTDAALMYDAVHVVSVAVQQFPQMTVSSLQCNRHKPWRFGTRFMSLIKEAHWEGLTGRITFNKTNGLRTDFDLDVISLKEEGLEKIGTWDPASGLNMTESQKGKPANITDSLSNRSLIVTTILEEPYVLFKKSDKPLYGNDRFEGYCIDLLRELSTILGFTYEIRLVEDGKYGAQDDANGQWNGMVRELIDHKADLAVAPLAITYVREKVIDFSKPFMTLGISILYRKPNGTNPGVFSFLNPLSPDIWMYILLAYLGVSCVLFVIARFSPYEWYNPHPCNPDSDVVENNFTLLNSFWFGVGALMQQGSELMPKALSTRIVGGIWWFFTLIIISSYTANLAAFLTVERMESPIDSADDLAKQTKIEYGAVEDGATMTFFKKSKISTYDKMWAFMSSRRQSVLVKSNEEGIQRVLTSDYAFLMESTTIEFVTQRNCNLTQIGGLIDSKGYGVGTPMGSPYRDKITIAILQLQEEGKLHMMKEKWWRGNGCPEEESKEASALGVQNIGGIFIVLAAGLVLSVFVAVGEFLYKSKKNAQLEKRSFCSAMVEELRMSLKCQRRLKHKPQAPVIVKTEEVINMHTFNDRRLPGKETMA
smiles,measurement,setting,value
CN[C@H]1[C@H]2O[C@@](C[C@H](N)C(=O)O)(C(=O)O)C[C@H]2OC[C@H]1O [DYSIHERBAINE],pKi,[1],8.92
same,pKi,[2],9.13
